Experimental findings from EPA's ToxRefDB 2 are described below.

Structures are written as SMILES. Where only a bound is given, the exact number is not on record here.

Usually LOAEL stands for the lowest dose or exposure tested at which an adverse effect was seen. In general, NOAEL refers to the highest tested level that showed no adverse finding.

Series [1] has as its system rabbit. The conditions noted are these: Prenatal developmental toxicity study, new zealand white, Oral, Gavage/Intubation, dose end: 19 GD.
The subject of a further series is hamster. The conditions noted are these: Prenatal developmental toxicity study, golden syrian, Oral, Gavage/Intubation, dose end: 15 GD.
Series [2] deals with rat. The conditions noted are these: Multigenerational reproductive toxicity study, wistar, Oral, Feed, dose end: 2 generation.
The test system of series [3] is rat. The following applies: Subchronic oral toxicity in rodents, sprague dawley, Feed, dose end: 3 month.
The test system of series [4] is rabbit. The conditions noted are these: Prenatal developmental toxicity study, other, Oral, Gavage/Intubation, dose end: 18 GD.
In series [5] the test system is rat. The following applies: Multigenerational reproductive toxicity study, other, Oral, Feed, dose end: 2 generation.
Series [6] concerns rat. The conditions noted are these: Prenatal developmental toxicity study, sprague dawley, Oral, Gavage/Intubation, dose end: 15 GD.
Series [7] concerns rabbit. The conditions noted are these: Prenatal developmental toxicity study, himalayan, Oral, Gavage/Intubation, dose end: 18 GD.
For series [8], the system named is rat. The following applies: Prenatal developmental toxicity study, wistar, Oral, Gavage/Intubation, dose end: 16 GD.
The test system of series [9] is rat. The conditions noted are these: Prenatal developmental toxicity study, other, Oral, Gavage/Intubation, dose end: 15 GD.
Another series has as its system mouse. The conditions noted are these: Prenatal developmental toxicity study, cd1, Oral, Gavage/Intubation, dose end: 15 GD.
Series [10] deals with rat. The conditions noted are these: Prenatal developmental toxicity study, sprague dawley, Inhalation, Whole-Body, dose end: 20 GD.
[11] abbreviates: group: developmental, developmental / developmental malformation / brain / hydrocephaly + developmental / developmental malformation / bone / domed head.
[12] abbreviates: group: maternal, reproductive / reproductive performance / postimplantation loss / postimplantation loss + reproductive / reproductive performance / ….
The mark [13] stands for this setting: group: developmental, developmental / developmental malformation / bone / [other] + developmental / developmental malformation / bone / absent + developmental / ….
The mark [14] stands for this setting: group: maternal, systemic / in life observation / clinical signs / ataxia + systemic / in life observation / clinical signs / body temperature + systemic / ….
Where [15] appears, read: group: offspring, systemic / in life observation / body weight / offspring (pup) weight + systemic / organ weight / spleen / absolute + systemic / organ ….
Setting [16] is: group: parental, systemic / organ weight / spleen / absolute.
The mark [17] stands for this setting: group: parental, systemic / organ weight / spleen / absolute + systemic / in life observation / body weight / body weight gain + systemic / pathology ….
[18] abbreviates: group: reproductive, reproductive / reproductive performance / estrous cycle / abnormal.
[19] abbreviates: group: cholinesterase, cholinesterase / cholinesterase / cholinesterase / cholinesterase (che).
Where [20] appears, read: group: systemic, systemic / hematology / anemia / anemia - hemolytic + systemic / in life observation / body weight / body weight gain + systemic / in life ….
Setting [21] is: group: systemic, systemic / hematology / blood clotting / blood clotting - activated partial thromboplastin time + systemic / hematology / blood clotting / ….
[22] abbreviates: group: developmental, developmental / developmental malformation / bone / full supernumerary + systemic / in life observation / body weight / fetal weight.
[23] abbreviates: group: developmental, developmental / developmental malformation / bone / full supernumerary + systemic / in life observation / body weight / fetal weight + ….
[24] abbreviates: group: maternal, systemic / in life observation / body weight / body weight gain + systemic / in life observation / food consumption / food consumption.
The mark [25] stands for this setting: group: maternal, systemic / in life observation / body weight / body weight gain + systemic / in life observation / food consumption / food consumption + ….
The mark [26] stands for this setting: group: offspring, systemic / in life observation / body weight / offspring (pup) weight.
Setting [27] is: group: offspring, systemic / in life observation / body weight / offspring (pup) weight + developmental / developmental malformation / bone / extra ….
Where [28] appears, read: group: parental, systemic / pathology microscopic / spleen / hemosiderosis.
Where [29] appears, read: group: parental, systemic / pathology microscopic / spleen / hemosiderosis + systemic / in life observation / body weight / body weight gain + systemic / in ….
[30] abbreviates: group: developmental, developmental / developmental malformation / bone / fragmented + developmental / developmental malformation / bone / unossified + ….
[31] abbreviates: group: maternal, systemic / in life observation / body weight / body weight gain + systemic / in life observation / mortality / mortality + systemic / ….
Setting [32] is: group: developmental, developmental / developmental malformation / bone / [other] + developmental / developmental malformation / bone / fragmented + developmental….
[33] abbreviates: group: maternal, systemic / in life observation / mortality / mortality + systemic / in life observation / clinical signs / [other] + systemic / in life ….
Setting [34] is: group: developmental, developmental / developmental malformation / bone / bent.
Setting [35] is: group: maternal, systemic / in life observation / body weight / body weight + systemic / in life observation / body weight / body weight gain + systemic / in….
Where [36] appears, read: group: developmental, developmental / developmental malformation / bone / [other] + developmental / developmental malformation / bone / discontinuous.
Where [37] appears, read: group: developmental, developmental / developmental malformation / bone / [other] + developmental / developmental malformation / bone / discontinuous + ….
Where [38] appears, read: group: maternal, systemic / in life observation / water consumption / water consumption.
Setting [39] is: group: maternal, systemic / in life observation / water consumption / water consumption + systemic / in life observation / body weight / body weight gain + ….
Setting [40] is: group: developmental, systemic / in life observation / body weight / fetal weight.
Setting [41] is: group: maternal, systemic / in life observation / water consumption / water consumption + systemic / in life observation / clinical signs / altered breathing….
Where [42] appears, read: group: developmental, systemic / in life observation / body weight / fetal weight + developmental / developmental malformation / bone / incomplete ossification.

Compound `O=c1[nH]c(=O)[nH]c(=O)[nH]1` [Cyanuric acid] gave an LOAEL in the series with rabbit [1] (group: developmental, developmental / developmental malformation / brain / hydrocephaly) of 500 mg/kg/day. Moreover, in the series with rabbit [1] (setting [11]), the LEL came out at 500 mg/kg/day, the NEL was 200 mg/kg/day and the NOAEL came to 200 mg/kg/day. Besides, in the series on rabbit [1] (setting [12]), the LEL stood at 500 mg/kg/day, the lowest-observed-adverse-effect level (LOAEL) is greater than 500 mg/kg/day, the NEL is 200 mg/kg/day and the no observed adverse effect level (NOAEL) is no less than 500 mg/kg/day.
For `CC(C)(C#N)O[C@@H]1O[C@H](CO)[C@@H](O)[C@H](O)[C@H]1O` [Linamarin], in the series with hamster (setting [13]), the LOAEL is greater than 140 mg/kg/day, the NEL was determined as 100 mg/kg/day and the no-observed-adverse-effect level (NOAEL) is no less than 140 mg/kg/day. The LEL in the series on hamster (group: developmental, developmental / developmental malformation / bone / absent + developmental / developmental malformation / bone / meningoencephalocele) turned out to be 120 mg/kg/day. Moreover, in the series on hamster (setting [14]), the LEL was 100 mg/kg/day, the LOAEL was greater than 140 mg/kg/day, the NEL came to 70 mg/kg/day and the NOAEL was no less than 140 mg/kg/day.
As for `Cc1cc(C)c(C2=C(OC(=O)CC(C)(C)C)C3(CCCC3)OC2=O)c(C)c1` [Spiromesifen], in the series on rat [2] (setting [15]), the LEL is 13.2 mg/kg/day, the LOAEL was found to be 13.2 mg/kg/day, the NEL was 3.3 mg/kg/day and the NOAEL is 3.3 mg/kg/day. Also, in the series on rat [2] (setting [16]), the LEL was 13.2 mg/kg/day and the LOAEL was found to be 13.2 mg/kg/day. Besides, in the series on rat [2] (setting [17]), the NEL turned out to be 3.3 mg/kg/day and the NOAEL is 3.3 mg/kg/day. Further, in the series with rat [2] (setting [18]), the LEL came to 18 mg/kg/day, the LOAEL came out at 18 mg/kg/day, the NEL was 4.6 mg/kg/day and the no observed adverse effect level (NOAEL) worked out at 4.6 mg/kg/day.
As to `C#CCN1CC(=O)N(COC(=O)C2C(C=C(C)C)C2(C)C)C1=O` (stereo not given) [Imiprothrin], the LEL with rat [3] (setting [19]) came out at 399 mg/kg/day; in the series on rat [3] (setting [21]) it was 5.9 mg/kg/day; in the series with rabbit [4] (setting [22]), 100 mg/kg/day; in the series with rabbit [4] (setting [25]), 100 mg/kg/day; with rat [5] (setting [27]), 369 mg/kg/day; with rat [5] (setting [28]), 144 mg/kg/day. For the same compound, the LOAEL in the series on rat [3] (setting [19]) is greater than 657 mg/kg/day; in the series with rat [3] (setting [20]), 179 mg/kg/day; in the series on rabbit [4] (setting [22]), 100 mg/kg/day; with rabbit [4] (setting [24]) it was 100 mg/kg/day; in the series with rat [5] (setting [27]), 369 mg/kg/day; with rat [5] (setting [28]) it was 144 mg/kg/day. Besides, the NEL is 197 mg/kg/day in the series with rat [3] (setting [19]); less than 5.9 mg/kg/day in the series on rat [3] (setting [21]); 30 mg/kg/day in the series with rabbit [4] (setting [23]); 30 mg/kg/day in the series on rabbit [4] (setting [25]); 126 mg/kg/day in the series with rat [5] (setting [26]); 14.7 mg/kg/day in the series with rat [5] (setting [29]). The NOAEL with rat [3] (setting [19]) was no less than 657 mg/kg/day; in the series with rat [3] (setting [20]), 5.9 mg/kg/day; in the series on rabbit [4] (setting [23]), 30 mg/kg/day; in the series with rabbit [4] (setting [25]) it was 30 mg/kg/day; in the series with rat [5] (setting [26]) it was 126 mg/kg/day; in the series with rat [5] (setting [29]) it was 14.7 mg/kg/day.
As for `[Li+].[O-]Cl` [Lithium hypochlorite], in the series on rat [6] (setting [30]), the lowest observed adverse effect level (LOAEL) was found to be 500 mg/kg/day, the NEL was found to be 10 mg/kg/day and the no-observed-adverse-effect level (NOAEL) is 100 mg/kg/day. Further, in the series with rat [6] (group: developmental, developmental / developmental malformation / bone / kinked + developmental / developmental malformation / bone / thread-like + developmental…), the LEL turned out to be 50 mg/kg/day. In the series on rat [6] (setting [31]), the LEL came out at 500 mg/kg/day, the LOAEL was 500 mg/kg/day, the NEL was 100 mg/kg/day and the NOAEL was found to be 100 mg/kg/day.
As for `CCOC(=O)C1=NOC(c2ccccc2)(c2ccccc2)C1` [Isoxadifen-ethyl], the LEL is 500 mg/kg/day in the series with rabbit [7] (setting [32]), 500 mg/kg/day in the series with rabbit [7] (setting [33]), 120 mg/kg/day in the series on rat [8] (setting [34]) and 1000 mg/kg/day in the series with rat [8] (setting [35]). In addition, the lowest-observed-adverse-effect level (LOAEL) with rabbit [7] (setting [32]) is 500 mg/kg/day; with rabbit [7] (group: maternal, systemic / in life observation / mortality / mortality) it was 500 mg/kg/day; in the series with rat [8] (setting [34]), 120 mg/kg/day; in the series on rat [8] (setting [35]) it was 1000 mg/kg/day. Also, the NEL turned out to be 50 mg/kg/day in the series with rabbit [7] (setting [32]), 50 mg/kg/day in the series with rabbit [7] (setting [33]), 15 mg/kg/day with rat [8] (setting [34]) and 120 mg/kg/day in the series with rat [8] (setting [35]). Further, the NOAEL with rabbit [7] (setting [32]) was found to be 50 mg/kg/day; in the series on rabbit [7] (setting [33]), 50 mg/kg/day; with rat [8] (setting [34]) it was 15 mg/kg/day; in the series with rat [8] (setting [35]), 120 mg/kg/day.
For `OCCOCCO` [Diethylene glycol], the LEL turned out to be 4470 mg/kg/day in the series with rat [9] (setting [36]), 4470 mg/kg/day in the series with rat [9] (setting [38]), 11200 mg/kg/day in the series with mouse (setting [40]) and 2800 mg/kg/day in the series on mouse (setting [38]). Further, the LOAEL worked out at 4470 mg/kg/day with rat [9] (setting [36]), 4470 mg/kg/day in the series on rat [9] (setting [38]), 11200 mg/kg/day in the series on mouse (setting [40]) and 2800 mg/kg/day in the series with mouse (setting [38]). The NEL in the series with rat [9] (setting [37]) amounted to 1120 mg/kg/day; in the series on rat [9] (setting [39]), 1120 mg/kg/day; in the series with mouse (setting [40]), 2800 mg/kg/day; in the series with mouse (setting [41]), 559 mg/kg/day. Moreover, the NOAEL stood at 1120 mg/kg/day in the series with rat [9] (setting [37]), 1120 mg/kg/day in the series on rat [9] (setting [39]), 2800 mg/kg/day with mouse (setting [40]) and 559 mg/kg/day in the series with mouse (setting [41]).
As for `Cc1cc(C)cc(C)c1` [1,3,5-Trimethylbenzene], in the series with rat [10] (setting [40]), the LEL was 600 ppm and the lowest-observed-adverse-effect level (LOAEL) is 600 ppm. Besides, in the series on rat [10] (setting [42]), the NEL is 300 ppm and the NOAEL came out at 300 ppm. In the series on rat [10] (setting [24]), the LEL was 300 ppm, the lowest-observed-adverse-effect level (LOAEL) worked out at 300 ppm, the NEL came to 100 ppm and the NOAEL amounted to 100 ppm.
